Drawing on patent US5006468A, “Novel urease and method of producing the same” (Suntory Limited, priority 1987, dated 1991), this text covers Km for 1 compound.

The test system of the test is urease produced by Arthrobacter mobilis SAM0752 (FERM BP-2127). Description: Km value for urea of the purified urease. It is filed as biochemical. Particulars: 0.1M acetic acid buffer (pH 4.5), 37° C. As for the experimental part:
The activity was determined by measuring the amount of ammonia produced by decomposition of urea during the enzyme reaction per unit of time. In particular, 0.025 ml of an enzyme solution was added to a reaction solution containing 0.2 ml of a 0.1M acetic acid buffer (pH 4.5) and 0.025 ml of a 0.1M urea solution, followed by incubation at 37° C. for a given time (10 to 20 minutes). The reaction was terminated by adding 0.025 ml of a 33% trichloroacetic acid solution. […] of the reaction solution was added to 1 ml of a coloring solution which had been prepared by mixing 10 ml of a 0.3M phosphate buffer (pH 7.5), 0.56 ml of 25 mg/ml o-phthalaldehyde in ethanol, and 0.56 ml of 5 mg/ml 2-mercaptoethanol in ethanol. After allowing the thus-obtained mixture to stand for 45 minutes at room temperature, the increase in absorbance at a wavelength of 410 nm was measured. The enzyme activity was then calculated from a calibration curve which was formed using predetermined amounts of ammonium chloride as a reference substance. This method was based on the method by Heini et al. [Eur. J. Biochem., 162, 541 (1987)]. The activity unit of the enzyme was defined as the amount of ammonia produced in terms of μ mol/min.

The structures appear in SMILES notation.

As usually defined, the Km is the concentration of substrate that gives half-maximal velocity. Take `NC(N)=O` [urea]: the Km by setting is: (20% ethanol added) around 3.7 mM; (no ethanol added) around 3.6 mM.
